From ChEMBL document CHEMBL5346908, “Recent advances of mitochondrial complex I inhibitors for cancer therapy: Current status and future perspectives” (Eur J Med Chem, 2023)
Values after ≈ are worked out from the molar mass of the structure shown.

Columns and labels:
[1] = Oral bioavailability in human; assay type: ADME, organism-based; conditions: in vivo
Melanoma cell line = assay: Antiproliferative activity against human melanoma cells assessed as reduction in cell viability incubated for 72 hrs by CellTiter-Fluor reagent based fluorescence analysis; assay type: functional
NCI-H460 = assay: Antiproliferative activity against human NCI-H460 cells assessed as reduction in cell viability incubated for 48 hrs by cell titer glow assay; assay type: functional, cell-based; conditions: NCI-H460, 48 h
4T1 [2] = assay: Antitumor activity against mouse 4T1 cells xenografted in BALB/c mouse model assessed as peak tumor level at 100 mg/kg, ip measured after 4 hrs; assay type: functional
A-375 = assay: Antiproliferative activity against human A-375 cells assessed as inhibition of cell growth measured after 72 hrs by CCK8 assay; assay type: functional, cell-based; conditions: A-375, 72 h
4T1 [3] = assay: Antitumor activity against mouse 4T1 cells xenografted in BALB/c mouse model assessed as peak plasma level at 100 mg/kg, ip; assay type: functional
[4] = Half life in BALB/c mouse plasma at 100 mg/kg, ip; assay type: ADME, organism-based
[5] = Half life in tumor of BALB/c mouse model xenografted with 4T1 cells at 100 mg/kg, ip measured after 4 hrs; assay type: ADME, organism-based
L1210 = assay: Antitumor activity against mouse L1210 cells xenografted in […] model assessed as prolongation of life span relative to control; assay type: functional
[6] = Inhibition of mitochondrial respiration in Sprague-Dawley rat liver; assay type: functional, tissue-based
[7] = target: T1, Receptor tyrosine-protein kinase erbB-2 (Homo sapiens, UniProt P04626); assay: Inhibition of ERBB2 (unknown origin) in human NCI-H1975 cells assessed as increase in mitochondrial ROS level incubated for 48 hrs by Western blot analysis
T1 sequence (P04626 whole entry): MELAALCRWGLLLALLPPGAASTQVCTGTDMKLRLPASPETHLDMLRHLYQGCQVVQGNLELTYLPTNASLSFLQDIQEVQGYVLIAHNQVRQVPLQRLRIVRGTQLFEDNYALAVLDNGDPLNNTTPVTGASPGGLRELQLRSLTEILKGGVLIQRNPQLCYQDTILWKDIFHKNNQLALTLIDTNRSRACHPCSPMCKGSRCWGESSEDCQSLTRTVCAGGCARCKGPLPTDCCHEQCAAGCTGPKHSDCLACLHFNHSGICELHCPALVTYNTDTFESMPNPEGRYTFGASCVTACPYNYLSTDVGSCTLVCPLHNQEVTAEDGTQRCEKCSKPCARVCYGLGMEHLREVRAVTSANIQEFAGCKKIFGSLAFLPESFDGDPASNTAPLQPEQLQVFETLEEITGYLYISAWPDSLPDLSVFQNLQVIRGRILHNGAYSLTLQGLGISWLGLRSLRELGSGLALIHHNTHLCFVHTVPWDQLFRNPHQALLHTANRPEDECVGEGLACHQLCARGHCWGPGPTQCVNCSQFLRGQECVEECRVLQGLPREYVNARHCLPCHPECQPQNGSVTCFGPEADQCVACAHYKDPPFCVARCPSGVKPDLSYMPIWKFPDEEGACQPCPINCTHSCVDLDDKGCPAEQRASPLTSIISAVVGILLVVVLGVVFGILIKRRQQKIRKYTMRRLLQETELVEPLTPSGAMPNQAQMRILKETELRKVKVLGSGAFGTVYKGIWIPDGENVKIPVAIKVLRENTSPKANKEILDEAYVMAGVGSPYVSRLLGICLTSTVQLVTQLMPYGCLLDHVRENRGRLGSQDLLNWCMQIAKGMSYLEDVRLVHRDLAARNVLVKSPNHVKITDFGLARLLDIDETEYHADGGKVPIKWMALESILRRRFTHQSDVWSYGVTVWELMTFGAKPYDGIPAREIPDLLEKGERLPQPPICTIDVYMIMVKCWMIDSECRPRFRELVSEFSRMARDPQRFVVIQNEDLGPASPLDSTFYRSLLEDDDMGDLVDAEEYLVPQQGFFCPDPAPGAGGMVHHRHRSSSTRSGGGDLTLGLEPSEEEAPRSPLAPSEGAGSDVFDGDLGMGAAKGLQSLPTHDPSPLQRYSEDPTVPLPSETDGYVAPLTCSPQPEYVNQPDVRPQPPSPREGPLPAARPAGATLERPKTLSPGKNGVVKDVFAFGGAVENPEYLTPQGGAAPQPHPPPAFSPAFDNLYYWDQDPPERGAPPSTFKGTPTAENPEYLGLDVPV

[8] = target: T1, Receptor tyrosine-protein kinase erbB-2; assay: Inhibition of ERBB2 (unknown origin)
[9] = Antiproliferative activity against mouse L929 cells assessed as inhibition of cell growth incubated for 5 days by MTT assay; assay type: toxicity, cell-based
[10] = Antiproliferative activity against mouse TA3/Ha cells assessed as reduction in cell growth; assay type: functional, cell-based
MCF7 = assay: Antiproliferative activity against human MCF7 cells assessed as reduction in cell viability incubated for 72 hrs by MTT assay; assay type: functional, cell-based; conditions: MCF7, 72 h
MDA-MB-435 = assay: Antiproliferative activity against human MDA-MB-435 cells assessed as reduction in cell viability incubated for 72 hrs by cell-titer glo assay; assay type: functional, cell-based; conditions: MDA-MB-435, 72 h
[11] = Inhibition of NADH-ubiquinone oxidoreductase (unknown origin) binding to ETC complex 1; design: species or system Homo sapiens
MDA-MB-231 [12] = assay: Antiproliferative activity against human MDA-MB-231 cells assessed as reduction in cell viability incubated for 72 hrs by cell-titer glo assay; assay type: functional, cell-based; conditions: MDA-MB-231, 72 h
HepG2 = assay: Cytotoxicity against human HepG2 cells assessed as reduction cell proliferation incubated for 24 hrs by MTT assay; assay type: functional, cell-based; conditions: HepG2, 24 h
HT-29 [13] = assay: Inhibition of colony formation of human HT-29 cells incubated for 7 days in absence of glucose by crystal violet staining based analysis; assay type: functional, cell-based; conditions: HT-29, 168 h
HEK293 = assay: Cytotoxicity against human HEK293 cells assessed as reduction in cell proliferation incubated for 24 hrs by MTT assay; assay type: functional, cell-based; conditions: HEK293, 24 h
HT-29 [14] = assay: Inhibition of colony formation of human HT-29 cells assessed as reduction in colonies incubated for 7 days by crystal violet staining based analysis; assay type: functional, cell-based; conditions: HT-29, 168 h
[15] = Cytotoxicity against Trichoplusia ni BTI-TN-5B1-4 cells assessed as reduction cell proliferation incubated for 24 hrs by MTT assay; assay type: toxicity, cell-based
NSCLC [16] = assay: Antiproliferative activity against human NSCLC cells assessed as reduction in cell viability incubated for 72 hrs by MTT assay; assay type: functional, cell-based
NSCLC [17] = assay: Antitumor activity against human NSCLC cells xenografted in orthotopic lung tumor mouse model assessed as reduction in tumor growth incubated for 8 weeks; assay type: functional; conditions: 1344 h
HCT-116 [18] = assay: Inhibition of mitochondrial respiration in human HCT-116 cells assessed as oxygen consumption rate incubated for 1 hr by Seahorse XF24 extracellular flux analyzer; assay type: functional, cell-based; conditions: HCT-116, 1 h
MDA-MB-231 [19] = assay: Inhibition of mitochondrial respiration in human MDA-MB-231 cells assessed as oxygen consumption rate incubated for 1 hr by Seahorse XF24 extracellular flux analyzer; assay type: functional, cell-based; conditions: MDA-MB-231, 1 h
THP-1 = assay: Antiproliferative activity against human THP-1 cells assessed as cell growth inhibition incubated for 72 hrs by MTT assay; assay type: functional, cell-based; conditions: THP-1, 72 h
HL-60 = assay: Antiproliferative activity against human HL-60 cells assessed as cell growth inhibition incubated for 72 hrs by MTT assay; assay type: functional, cell-based; conditions: HL-60, 72 h
KG-1 = assay: Antiproliferative activity against human KG-1 cells assessed as cell growth inhibition incubated for 72 hrs by MTT assay; assay type: functional, cell-based; conditions: KG-1, 72 h
HCT-116 [20] = assay: Antiproliferative activity against human HCT-116 cells assessed as reduction in cell viability; assay type: functional, cell-based
NCI-H1581 = assay: Antiproliferative activity against human NCI-H1581 cells assessed as reduction in cell growth incubated for 72 hrs by Cell-titer glo assay; assay type: functional, cell-based; conditions: NCI-H1581, 72 h
[21] = Antiproliferative activity against human DFCI024 cells assessed as reduction in cell growth incubated for 72 hrs by Cell-titer glo assay; assay type: functional, cell-based; conditions: DFCI024, 72 h
NCI-H1693 = assay: Antiproliferative activity against human NCI-H1693 assessed as reduction in cell growth incubated for 72 hrs by Cell-titer glo assay; assay type: functional, cell-based; conditions: NCI-H1693, 72 h
NCI-H157 = assay: Antiproliferative activity against human NCI-H157 assessed as reduction in cell growth incubated for 72 hrs by Cell-titer glo assay; assay type: functional, cell-based; conditions: NCI-H157, 72 h

`N=C(NC(=N)N1CCCC1)Nc1ccc(OC(F)(F)F)cc1` [LIXUMISTAT] gave a bioavailability [1] of 72.9%.
`Cc1cc(-c2nc(-c3ccc(OC(F)(F)F)cc3)no2)nn1Cc1ccnc(N2CCN(C3CC3)CC2)c1` showed an IC50 (Melanoma cell line) of 2 nM and an EC50 (NCI-H460) of 3 nM.
`CCCCc1ccc(N)c(C)c1` gave an Activity (4T1 [2]) of 11 µM, an IC50 (A-375) of 100000 nM and an Activity (4T1 [3]) of 25 µM. The half-life [4] was 1.1 h and the half-life [5] was 1.2 h.
`CCCCCCCCCC[C@H](O)[C@H]1CC[C@H]([C@H]2CC[C@H]([C@H](O)CCCCCCCCCC[C@@H](O)CC3=C[C@H](C)OC3=O)O2)O1` [REL-SQUAMOCIN-G] gave an Activity (L1210) of 38% and an IC50 [6] of 9.5 nM.
`FC(F)(F)c1ccc(/C=C/c2nc(COc3ccc(CCCCn4ccnn4)cc3)co2)cc1` [MUBRITINIB] gave an IC50 [7] of 80 nM and an IC50 [8] of 51 nM.
`C=C(C)[C@H]1Cc2c(ccc3c2O[C@@H]2COc4cc(OC)c(OC)cc4[C@@H]2C3=O)O1` [ROTENONE] showed an IC50 at 5 days [9] of 16.1 nM and an IC50 [6] of 19.3 nM.
`CC1(C)C=CC(=O)c2c(O)c3c(c(O)c21)CC=CC3` gave an IC50 [10] of 13000 nM.
`CCCCCC[C@H](O)CCC[C@H](O)[C@H]1CC[C@H]([C@H]2CC[C@H]([C@H](O)CCCCCCCCCCCCC3=C[C@H](C)OC3=O)O2)O1` [SQUAMOCIN] showed an IC50 (MCF7) of 0.8 ng/mL (≈ 1.28 nM).
`Cc1ccc(Sc2cccc3[nH]c4nc(N)nc(N)c4c23)cc1` showed an IC50 (MDA-MB-435) of 11900 nM, a Ki [11] of 840 nM and an IC50 (MDA-MB-231 [12]) of 6900 nM.
In the case of `C/C=C(\C)[C@H](O)[C@H](C)/C=C(C)/C=C/C/C(C)=C/Cc1nc(OC)c(OC)c(O)c1C` [PIERICIDIN A], the IC50 (HepG2) is reported as 234000 nM, the IC50 (HT-29 [13]) is reported as 7.7 nM and the IC50 (HEK293) is reported as 229000 nM. For the same compound, the IC50 (HT-29 [14]) was 6.4 nM and the IC50 at 24 h [15] was 61 nM.
Work on `O=C(NCCCCCCCCCC[P+](c1ccccc1)(c1ccccc1)c1ccccc1)c1nn(Cc2ccc(Cl)cc2Cl)c2ccccc12` yielded an IC50 (NSCLC [16]) of 740 nM and an ED50 (NSCLC [17]) of 7.5 µmol/kg.
Compound `O[C@@H](CNC[C@H](O)[C@H]1CCc2cc(F)ccc2O1)[C@@H]1CCc2cc(F)ccc2O1` has an IC50 (HCT-116 [18]) of 900 nM and an IC50 (MDA-MB-231 [19]) of 2100 nM.
Work on `Cc1nc(-c2nc(-c3ccc(OC(F)(F)F)cc3)no2)nn1Cc1cccc(N2CCC(S(C)(=O)=O)CC2)c1` yielded an EC50 (THP-1) of 3 nM, an EC50 (HL-60) of 3 nM and an EC50 (KG-1) of 3 nM.
For `Cc1cc(OCc2nnc(SC3CCCC3)n2-c2cccnc2)ccc1-c1ccc(S(C)(=O)=O)cc1`, the IC50 at 5 days [9] was 1.3 nM and the IC50 (HCT-116 [20]) was 450 nM.
For `CCCCCn1c(=O)[nH]c2cc(C(=O)N3CCN(c4ccc([N+](=O)[O-])cc4)CC3)ccc2c1=O`, the IC50 (NCI-H1581) was 200 nM, the IC50 [21] was 200 nM and the IC50 (NCI-H1693) was 200 nM. The IC50 (NCI-H157) was 200 nM.
